Read-outs that look alike come from different tables or passages of the source.
Experiments:
[1] = tested on: HDAC; conditions: Ookubo, 2013; cited from earlier work
[2] = tested on: MeCP2 KO mice; design: key: ↑: increased; ↓: decreased; conditions: Park, 2014; cited from earlier work
[3] = tested on: histone acetylation; conditions: brief description of the histone acetylation mechanism; cited from earlier work
[4] = tested on: MeCP2^tm1HzO mice; design: key: ↑: increased; ↓: decreased; conditions: Ben-Zeev, 2011, cited from earlier work
[5] = tested on: Silenced MeCP2 in mouse neurons; design: key: ↑: increased; ↓: decreased; conditions: Ma, 2015; cited from earlier work
[6] = tested on: polyglutamine induced cell death; conditions: McCampbell, 2001; cited from earlier work
[7] = tested on: cultured colon cells; conditions: Mariadason, 2000; cited from earlier work
[8] = tested on: MeCP2^tm1.1Jae mice; design: key to Lifespan / Normal breathing / Motor function / Motility: ↑: increased; ↓: decreased; conditions: cited from earlier work
[9] = tested on: MeCP2^1lox mice; design: key: ↑: increased; ↓: decreased; conditions: Schaevitz, 2012, cited from earlier work
[10] = tested on: FMR1 mRNA; conditions: Baicsi, 2008; cited from earlier work
[11] = tested on: Human females; design: key to Apneias: ↑: increased; ↓: decreased; conditions: cited from earlier work; for Apneias: Krajnc, 2013, Khwaja, 2014
[12] = tested on: X-inactivation; conditions: cited from earlier work
[13] = tested on: adult offspring of Low LG maternal care; conditions: Weaver et al., 2004; cited from earlier work
[14] = tested on: MeCP2^tm1.1Bird mice; design: key: ↑: increased; ↓: decreased; conditions: cited from earlier work
[15] = tested on: Fragile X syndrome patients; conditions: 12 weeks; from ˜50%; cited from earlier work
[16] = tested on: Rats; conditions: 30 days, diet with 28.5% of total calories supplied by Triacetin; cited from earlier work
[17] = tested on: animals; conditions: cited from earlier work
[18] = tested on: histones; conditions: radiolabeled acetate; cited from earlier work
[19] = tested on: 16 month old mice; conditions: Peleg, 2010; cited from earlier work
[20] = tested on: R6/2 HD mice; conditions: cited from earlier work
[21] = tested on: MecP2-null mice; design: key to Lifespan / Normal breathing / Motor function: ↑: increased; ↓: decreased; conditions: 2009, cited from earlier work
[22] = tested on: MeCP2-mutated human fibroblasts; conditions: Gold, 2015; cited from earlier work
[23] = tested on: MeCP2-mutated human fibroblasts; test: Tubastatin A in MeCP2-mutated human fibroblasts; conditions: 1 μM versus 5 mM butyrate
[24] = tested on: Non-Hodgkin's Lymphoma; conditions: continued regime of DCA and thiamine; cited from earlier work
[25] = Flavin, 2010; cited from earlier work
[26] = radioactive DCA; exhaled in breath; cited from earlier work
[27] = tested on: ectopically methylated DNA; conditions: cells harvested 48 hours after treatment; cited from earlier work

## CN(C)CCCN1c2ccccc2CCc2ccc(Cl)cc21 [clomipramine]
[1]
  HDAC inhibitor activity: HDAC inhibitors

## Nc1nnc(-c2cccc(Cl)c2Cl)c(N)n1 [lamotrigine]
[1]
  HDAC inhibitor activity: HDAC inhibitors

## CCCCCCC(=O)OCC(COC(=O)CCCCCC)OC(=O)CCCCCC [Triheptanoin]
[2]
  Lifespan: ↑ Lifespan, ↑ Social interaction,
  Motor function: ↑ Motor function
  Social interaction: ↑ Lifespan, ↑ Social interaction,
[3]
  Histone acetylation (mechanism): Metabolizes to Acetyl-CoA

## Glatiramer acetate
[4]
  BDNF: ↑ BDNF
[4]; text
  BDNF: increase
[3]
  Histone acetylation (mechanism): Contains acetate

## CCCC(C)C1(CC)C(=O)NC(=O)NC1=O (stereo not shown) [Pentobarbatol]
[5]
  Synaptic transmission (calcium spikes): ↑Synaptic transmission (calcium
  dendrite growth: ↑ dendrite growth,

## CCCC(=O)[O-].[Na+] [sodium butyrate]
[6]
  ability to reduce cell death: reduction in cell death
  expression of AR [the mutant protein]: slightly increased
[7]
  number of genes modified relative to TSA: roughly 10 times

## CNC1(c2ccccc2Cl)CCCCC1=O (stereo not shown) [Ketamine]
[8]; Kron, 2012
  PPI of the ASR (cognitive function): Improved PPI of the ASR (cognitive
[3]
  Histone acetylation (mechanism): HDACi activity in the Nucleus

## CC(=O)O[C@H](CC(=O)[O-])C[N+](C)(C)C [Acetyl-L-Carnitine]
[9]; Nag, 2007
  Motor function: ↑ Motor function
[9]
  Forepaw grip strength: ↑ Forepaw grip strength,
[3]
  Histone acetylation (mechanism): Increases Acetyl-CoA

## O=C1CCc2c(ccc3ccccc23)O1 [Splitomycin]
[10]
  FMR1 mRNA relative to normal control cells: approximately 20%

## CC[C@@H](C(N)=O)N1CCCC1=O [levetriacetam]
[1]
  HDAC inhibitor activity: HDAC inhibitors

## O=C(O)CCCc1ccccc1 [PBA, phenylbutyric acid]
[6]
  ability to reduce cell death: reduction in cell death
  expression of AR [the mutant protein]: slightly increased

## C[N+](C)(C)C[C@H](O)CC(=O)[O-] [L-Carnitine]
[11]; Ellaway, 1999
  Hand Apraxia Scale assessment: no effect on Hand Apraxia Scale
  Patient Well Being Index: Improved Patient Well Being Index,
[3]
  Histone acetylation (mechanism): Increases Acetyl-CoA

## CC1(C)O[C@@H]2[C@@H](CO[C@@]3(COS(N)(=O)=O)OC(C)(C)O[C@@H]23)O1 [Topiramate]
[11]
  Apneias: ↓ Apneias
[3]
  Histone acetylation (mechanism): HDACi

## O=c1cc(-c2ccccc2)oc2c(O)c(O)ccc12 [7,8-dihydroxyflavone]
[8]; Johnson, 2011
  Lifespan: ↑ Lifespan, ↑ Normal breathing,
  Motor function: ↑ Motor function
  Normal breathing: ↑ Lifespan, ↑ Normal breathing,

## CC(/C=C/C(=O)NO)=C\[C@@H](C)C(=O)c1ccc(N(C)C)cc1 [Trichostatin A]
[12]; even if Xist was turned off
  X-inactivation of the cells: no change
[13]
  acetylation: increased
  glucocorticoid receptor gene activation: to levels indistinguishable from adult offspring of High LG maternal care
  methylation: reduced
  stress response: reduced
[6]
  ability to reduce cell death: reduce cell death
  expression of AR [the mutant protein]: slightly increased

## NC(=O)N1c2ccccc2CC(=O)c2ccccc21 [oxcarbazepine]
[1]
  HDAC inhibitor activity: HDAC inhibitors

## NC(=O)N1c2ccccc2C=Cc2ccccc21 [carbamazepine]
[1]
  HDAC inhibitor activity: HDAC inhibitors

## N[C@@H](Cc1ccc(O)c(O)c1)C(=O)O [Levodopa]
[14]; Roux, 2007, Szczesna, 2014
  TH expressing neurons: ↑ TH expressing neurons
[14]; Szczesna, 2014
  Hind-limb clasping: ↓
  Lifespan: ↑
  Motor function: ↑
  Tremor: ↓
[3]
  Histone acetylation (mechanism): Histone acetylation,

## CNCCCN1c2ccccc2CCc2ccccc21 [Desipramine]
[14]; Roux, 2007, Szczesna, 2014
  TH expressing neurons: ↑
[14]; Roux, 2007
  Apneas: ↓

## CC[C@H](C)C(=O)O[C@H]1C[C@@H](C)C=C2C=C[C@H](C)[C@H](CC[C@@H]3C[C@@H](O)CC(=O)O3)[C@H]21 [Lovastatin]
[15]
  Aberrant Behavior Checklist score: ~30%

## CC(=O)OCC(COC(C)=O)OC(C)=O [Triacetin, glycerin triacetate]
[16]
  signs of toxicity: No overt signs of toxicity
[17]; CIREP, 2003
  metabolism: quickly metabolized into glycerol and acetic acid
  toxicity in acute oral or dermal exposures: not toxic
[17]; replacing conventional carbohydrates, Shapira, 1968
  tolerated triacetin as a percentage of total diet: up to 20%

## CC(=O)O [acetate]
[18]
  time for histones to become significantly acetylated: ≤ 15 min

## Nc1ncn([C@H]2C[C@H](O)[C@@H](CO)O2)c(=O)n1 [5-azadC, 5-aza-2′-deoxycytidine]
[12]; Xist on
  number of cells that lost their X-inactivation: 19 × as many compared to controls
[12]; combined with Xist deletion
  number of cells that lost their X-inactivation: 30 × as many compared to controls
[10]
  FMR1 mRNA relative to normal control cells: approximately 20%

## O=C(CCCCCCC(=O)Nc1ccccc1)NO [SAHA, Vorinostat]
[19]
  memory: improves
[6]
  ability to reduce cell death: comparable to TSA
  expression of AR [the mutant protein]: slightly increased
[20]; added to drinking water
  Motor function: marked improvement
[20]; mouse, in vivo
  blood-brain barrier crossing: crosses the blood-brain barrier
  histone acetylation in the brain: increases

## IGF-1: Insulin-like Growth Factor 1
[11]
  Apneias: ↓ Apneias
[21]; MeCP2 mutant mice, Tropea
  9 separate measures of RTT symptoms in mice: partially rescued
[21]; Trpoea
  Lifespan: ↑ Lifespan, ↑ Normal breathing,
  Motor function: ↑ Motor function
  Normal breathing: ↑ Lifespan, ↑ Normal breathing,
[3]
  Histone acetylation (mechanism): Increases H3, H4 Histone

## CN1CCc2c(c3ccccc3n2Cc2ccc(C(=O)NO)cc2)C1 [Tubastatin A]
[22]
  concentration at which it is a specific HDACi inhibitor (as low as): 1 µM
  mictotubules depolymerization: Protects mictotubules from
[3]
  Histone acetylation (mechanism): HDACi
[23]
  HDACi activity relative to butyrate: 5000 times

## CNCC[C@H](Oc1cccc2ccccc12)c1cccs1 [duloxetine]
[1]
  HDAC inhibitor activity: HDAC inhibitors

## O=C(O)C(Cl)Cl [DCA, dichloroacetate]
[24]
  monthly blood tests: normal
[25]
  toxicity of prolonged exposure: peripheral neuropathy
[26]
  fraction metabolized to carbon dioxide: up to 50%

## CCCC(CCC)C(=O)O [Valproic acid]
[8]; Guo, 2014
  Motility: ↑ Motility,
  gene expression in brain: Normalized gene expression in brain
  neurological symptoms: Improved neurological symptoms,
[3]
  Histone acetylation (mechanism): HDACi
[1]
  HDAC inhibitor activity: HDAC inhibitors
[27]
  demethylation of ectopically methylated DNA: stimulates active demethylation

## [Cl-].[Li+] [lithium chloride]
[1]
  HDAC inhibitor activity: HDAC inhibitors

B1: Exogenous BDNF: Brain Derived Neurotrophic Factor protein, given exogenously (protein, UniProt P23560 129-247, looked up)
Neurotrophic factor BDNF: HSDPARRGELSVCDSISEWVTAADKKTAVDMSGGTVTVLEKVPVSKGQLKQYFYETKCNPMGYTKEGCRGIDKRHWNSQCRTTQSYVRALTMDSKKRIGWRFIRIDTSCVCTLTIKRGR
modifications: Neurotrophic factor BDNF
[8]; Kline, 2010, listed as exogenous BDNF
  synaptic function in brainstem slices: normalize

— patent US10583106B2, “Method of treating cancer by oral administration of acetate composition comprising magnesium acetate, calcium acetate or ethylacetate” (priority 2015, dated 2020)
